Patent US12391648B2, “Pyridyloxy thioester derivative and preparation method therefor, herbicidal composition, and application” (Qingdao Kingagroot Chemical Compound Co., Ltd., priority 2018, dated 2025)

Legend:
Assay in all cases: Post-emergence test experiment (Table 3, 1000 g/ha)
Format in all cases: in vivo
Conditions in all cases: post-emergence spray, after 3 weeks, fresh weight inhibition
Monochoria vaginalis = test system: Monochoria vaginalis
Method in brief: (§1)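 Activity graded levels 0-5 by fresh-weight inhibition (level 5 above 85%, level 0 below 5%), assessed 3 weeks after treatment. Plants grown in greenhouse pots were sprayed post-emergence at 2-3 leaves using acetone/tween-80 solutions with methyl oleate synergist (1.5 L/ha).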

Galium spurium = test system: Galium spurium
Method in brief: as §1

Setaria viridis = test system: Setaria viridis
Method in brief: as §1

Leptochloa chinensis = test system: Leptochloa chinensis
Method in brief: as §1

Abutilon theophrasti = test system: Abutilon theophrasti
Method in brief: as §1

Digitaria sanguinalis = test system: Digitaria sanguinalis
Method in brief: as §1

| SMILES | Activity level (growth inhibition rate) Monochoria Vaginalis (Monochoria vaginalis) | Activity level (growth inhibition rate) Galium spurium (Galium spurium) | Activity level (growth inhibition rate) Setaria viridis (Setaria viridis) | Activity level (growth inhibition rate) Leptochloa chinensis (Leptochloa chinensis) | Activity level (growth inhibition rate) Abutilon theophrasti (Abutilon theophrasti) | Activity level (growth inhibition rate) Digitaria sanguinalis (Digitaria sanguinalis) |
| --- | --- | --- | --- | --- | --- | --- |
| CSC(=O)C(C)Oc1ncc(Cl)c(N)c1C (stereo not drawn) [Compound 21] | 5 (Level 5: the growth inhibition rate is greater than 85%) | 5 (Level 5: the growth inhibition rate is greater than 85%) | 5 (Level 5: the growth inhibition rate is greater than 85%) | 5 (Level 5: the growth inhibition rate is greater than 85%) | 5 (Level 5: the growth inhibition rate is greater than 85%) | 5 (Level 5: the growth inhibition rate is greater than 85%) |
| CSC(=O)C(C)Oc1nc(F)c(Cl)c(N)c1C1CC1 (stereo not drawn) [Compound 22] | 5 (Level 5: the growth inhibition rate is greater than 85%) | 5 (Level 5: the growth inhibition rate is greater than 85%) | 5 (Level 5: the growth inhibition rate is greater than 85%) | 5 (Level 5: the growth inhibition rate is greater than 85%) | 5 (Level 5: the growth inhibition rate is greater than 85%) | 5 (Level 5: the growth inhibition rate is greater than 85%) |
| CCCSC(=O)C(C)Oc1nc(F)c(Cl)c(N)c1Cl (stereo not drawn) [Compound 67] | 5 (Level 5: the growth inhibition rate is greater than 85%) | 5 (Level 5: the growth inhibition rate is greater than 85%) | 5 (Level 5: the growth inhibition rate is greater than 85%) | 5 (Level 5: the growth inhibition rate is greater than 85%) | 5 (Level 5: the growth inhibition rate is greater than 85%) | 5 (Level 5: the growth inhibition rate is greater than 85%) |
| CC(C)SC(=O)C(C)Oc1nc(F)c(Cl)c(N)c1Cl (stereo not drawn) [Compound 68] | 5 (Level 5: the growth inhibition rate is greater than 85%) | 5 (Level 5: the growth inhibition rate is greater than 85%) | 5 (Level 5: the growth inhibition rate is greater than 85%) | 5 (Level 5: the growth inhibition rate is greater than 85%) | 5 (Level 5: the growth inhibition rate is greater than 85%) | 5 (Level 5: the growth inhibition rate is greater than 85%) |
| CCC(C)SC(=O)C(C)Oc1nc(F)c(Cl)c(N)c1Cl (stereo not drawn) [Compound 69] | 5 (Level 5: the growth inhibition rate is greater than 85%) | 5 (Level 5: the growth inhibition rate is greater than 85%) | 5 (Level 5: the growth inhibition rate is greater than 85%) | 5 (Level 5: the growth inhibition rate is greater than 85%) | 5 (Level 5: the growth inhibition rate is greater than 85%) | 5 (Level 5: the growth inhibition rate is greater than 85%) |
| CCCCSC(=O)C(C)Oc1nc(F)c(Cl)c(N)c1Cl (stereo not drawn) [Compound 70] | 5 (Level 5: the growth inhibition rate is greater than 85%) | 5 (Level 5: the growth inhibition rate is greater than 85%) | 5 (Level 5: the growth inhibition rate is greater than 85%) | 5 (Level 5: the growth inhibition rate is greater than 85%) | 5 (Level 5: the growth inhibition rate is greater than 85%) | 5 (Level 5: the growth inhibition rate is greater than 85%) |
| CCCCCSC(=O)C(C)Oc1nc(F)c(Cl)c(N)c1Cl (stereo not drawn) [Compound 71] | 5 (Level 5: the growth inhibition rate is greater than 85%) | 5 (Level 5: the growth inhibition rate is greater than 85%) | 5 (Level 5: the growth inhibition rate is greater than 85%) | 5 (Level 5: the growth inhibition rate is greater than 85%) | 5 (Level 5: the growth inhibition rate is greater than 85%) | 5 (Level 5: the growth inhibition rate is greater than 85%) |
| CCCCCCSC(=O)C(C)Oc1nc(F)c(Cl)c(N)c1Cl (stereo not drawn) [Compound 72] | 5 (Level 5: the growth inhibition rate is greater than 85%) | 5 (Level 5: the growth inhibition rate is greater than 85%) | 5 (Level 5: the growth inhibition rate is greater than 85%) | 5 (Level 5: the growth inhibition rate is greater than 85%) | 5 (Level 5: the growth inhibition rate is greater than 85%) | 5 (Level 5: the growth inhibition rate is greater than 85%) |
| CCCCCCCCSC(=O)C(C)Oc1nc(F)c(Cl)c(N)c1Cl (stereo not drawn) [Compound 73] | 5 (Level 5: the growth inhibition rate is greater than 85%) | 5 (Level 5: the growth inhibition rate is greater than 85%) | 5 (Level 5: the growth inhibition rate is greater than 85%) | 5 (Level 5: the growth inhibition rate is greater than 85%) | 5 (Level 5: the growth inhibition rate is greater than 85%) | 5 (Level 5: the growth inhibition rate is greater than 85%) |
| CC(Oc1nc(F)c(Cl)c(N)c1Cl)C(=O)SC(F)(F)F (stereo not drawn) [Compound 75] | 5 (Level 5: the growth inhibition rate is greater than 85%) | 5 (Level 5: the growth inhibition rate is greater than 85%) | 5 (Level 5: the growth inhibition rate is greater than 85%) | 5 (Level 5: the growth inhibition rate is greater than 85%) | 5 (Level 5: the growth inhibition rate is greater than 85%) | 5 (Level 5: the growth inhibition rate is greater than 85%) |
| CC(Oc1nc(F)c(Cl)c(N)c1Cl)C(=O)SC(F)(F)C(F)(F)F (stereo not drawn) [Compound 76] | 5 (Level 5: the growth inhibition rate is greater than 85%) | 5 (Level 5: the growth inhibition rate is greater than 85%) | 5 (Level 5: the growth inhibition rate is greater than 85%) | 5 (Level 5: the growth inhibition rate is greater than 85%) | 5 (Level 5: the growth inhibition rate is greater than 85%) | 5 (Level 5: the growth inhibition rate is greater than 85%) |
| CC(Oc1nc(F)c(Cl)c(N)c1Cl)C(=O)SCC(F)(F)F (stereo not drawn) [Compound 78] | 5 (Level 5: the growth inhibition rate is greater than 85%) | 5 (Level 5: the growth inhibition rate is greater than 85%) | 5 (Level 5: the growth inhibition rate is greater than 85%) | 5 (Level 5: the growth inhibition rate is greater than 85%) | 5 (Level 5: the growth inhibition rate is greater than 85%) | 5 (Level 5: the growth inhibition rate is greater than 85%) |
| CC(Oc1nc(F)c(Cl)c(N)c1Cl)C(=O)SCC(F)(F)C(F)(F)F (stereo not drawn) [Compound 80] | 5 (Level 5: the growth inhibition rate is greater than 85%) | 5 (Level 5: the growth inhibition rate is greater than 85%) | 5 (Level 5: the growth inhibition rate is greater than 85%) | 5 (Level 5: the growth inhibition rate is greater than 85%) | 5 (Level 5: the growth inhibition rate is greater than 85%) | 5 (Level 5: the growth inhibition rate is greater than 85%) |
| CC(Oc1nc(F)c(Cl)c(N)c1Cl)C(=O)SC1CC1 (stereo not drawn) [Compound 81] | 5 (Level 5: the growth inhibition rate is greater than 85%) | 5 (Level 5: the growth inhibition rate is greater than 85%) | 5 (Level 5: the growth inhibition rate is greater than 85%) | 5 (Level 5: the growth inhibition rate is greater than 85%) | 5 (Level 5: the growth inhibition rate is greater than 85%) | 5 (Level 5: the growth inhibition rate is greater than 85%) |
| COSC(=O)C(C)Oc1nc(F)c(Cl)c(N)c1Cl (stereo not drawn) [Compound 83] | 5 (Level 5: the growth inhibition rate is greater than 85%) | 5 (Level 5: the growth inhibition rate is greater than 85%) | 5 (Level 5: the growth inhibition rate is greater than 85%) | 5 (Level 5: the growth inhibition rate is greater than 85%) | 5 (Level 5: the growth inhibition rate is greater than 85%) | 5 (Level 5: the growth inhibition rate is greater than 85%) |
